Source: ChEMBL document CHEMBL5291721, “A preclinical secondary pharmacology resource illuminates target-adverse drug reaction associations of marketed drugs” (Nat Commun, 2023)

Columns and labels:
[1] = target: Receptor tyrosine-protein kinase erbB-2 (Homo sapiens, UniProt P04626); type: functional
Estrogen receptor = target: T1, Estrogen receptor (Homo sapiens, UniProt P03372); type: functional
T1 sequence (P03372 whole entry): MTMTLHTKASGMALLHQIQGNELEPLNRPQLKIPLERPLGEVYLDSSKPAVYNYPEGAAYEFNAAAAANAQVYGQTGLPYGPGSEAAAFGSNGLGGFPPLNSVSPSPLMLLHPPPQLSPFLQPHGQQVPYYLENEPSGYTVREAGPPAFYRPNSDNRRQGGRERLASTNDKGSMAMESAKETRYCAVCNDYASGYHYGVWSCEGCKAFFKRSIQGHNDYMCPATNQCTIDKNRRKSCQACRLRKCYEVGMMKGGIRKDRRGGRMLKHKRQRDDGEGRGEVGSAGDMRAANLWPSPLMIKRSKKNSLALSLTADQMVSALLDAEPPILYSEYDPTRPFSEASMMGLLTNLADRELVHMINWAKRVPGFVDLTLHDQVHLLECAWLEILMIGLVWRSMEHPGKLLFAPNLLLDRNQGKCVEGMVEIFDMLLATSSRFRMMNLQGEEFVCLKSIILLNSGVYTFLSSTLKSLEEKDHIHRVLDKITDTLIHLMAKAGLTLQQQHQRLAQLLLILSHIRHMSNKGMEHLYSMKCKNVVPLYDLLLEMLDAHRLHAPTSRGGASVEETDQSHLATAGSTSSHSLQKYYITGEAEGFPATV

Glucocorticoid receptor = target: T2, Glucocorticoid receptor (Homo sapiens, UniProt P04150); type: functional
T2 sequence (P04150 whole entry): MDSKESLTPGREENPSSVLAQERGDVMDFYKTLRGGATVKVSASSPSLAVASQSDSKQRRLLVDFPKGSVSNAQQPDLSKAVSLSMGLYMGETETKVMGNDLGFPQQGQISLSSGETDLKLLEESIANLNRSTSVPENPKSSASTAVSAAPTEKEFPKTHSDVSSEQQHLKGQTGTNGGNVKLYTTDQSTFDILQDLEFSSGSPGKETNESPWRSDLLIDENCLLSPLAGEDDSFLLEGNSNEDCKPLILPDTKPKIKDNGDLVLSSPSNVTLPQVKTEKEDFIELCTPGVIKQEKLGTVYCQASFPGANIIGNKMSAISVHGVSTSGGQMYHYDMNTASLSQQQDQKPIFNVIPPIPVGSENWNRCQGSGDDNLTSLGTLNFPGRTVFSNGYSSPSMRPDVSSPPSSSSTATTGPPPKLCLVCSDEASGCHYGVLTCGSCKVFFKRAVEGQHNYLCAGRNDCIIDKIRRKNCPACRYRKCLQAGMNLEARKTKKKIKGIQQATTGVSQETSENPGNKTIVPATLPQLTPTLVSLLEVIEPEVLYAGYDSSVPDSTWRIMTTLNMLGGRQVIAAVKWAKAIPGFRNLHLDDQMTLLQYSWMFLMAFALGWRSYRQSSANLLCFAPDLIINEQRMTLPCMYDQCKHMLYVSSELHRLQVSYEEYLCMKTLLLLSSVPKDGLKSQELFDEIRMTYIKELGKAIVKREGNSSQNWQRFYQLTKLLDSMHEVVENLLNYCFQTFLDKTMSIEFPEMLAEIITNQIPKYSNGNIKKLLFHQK

[2] = target: T3, Peroxisome proliferator-activated receptor gamma (Homo sapiens, UniProt P37231); type: functional
T3 sequence (P37231 whole entry): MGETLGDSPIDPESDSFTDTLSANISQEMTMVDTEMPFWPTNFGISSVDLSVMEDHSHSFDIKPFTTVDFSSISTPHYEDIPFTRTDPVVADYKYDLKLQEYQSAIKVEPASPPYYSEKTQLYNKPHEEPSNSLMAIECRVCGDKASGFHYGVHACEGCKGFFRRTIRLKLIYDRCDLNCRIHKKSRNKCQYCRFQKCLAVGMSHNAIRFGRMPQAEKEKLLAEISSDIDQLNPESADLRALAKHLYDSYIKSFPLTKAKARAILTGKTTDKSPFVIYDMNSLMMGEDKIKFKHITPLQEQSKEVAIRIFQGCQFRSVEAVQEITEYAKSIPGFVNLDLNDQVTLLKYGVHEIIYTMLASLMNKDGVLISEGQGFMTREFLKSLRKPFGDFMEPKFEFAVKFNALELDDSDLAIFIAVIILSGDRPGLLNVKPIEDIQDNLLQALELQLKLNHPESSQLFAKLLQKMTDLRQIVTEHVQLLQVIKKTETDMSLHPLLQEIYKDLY

[3] = target: Beta-3 adrenergic receptor (Homo sapiens, UniProt P13945)
[4] = target: Gamma-aminobutyric acid receptor subunit alpha-1/alpha-2/beta-2/gamma-2 (Homo sapiens, UniProt P14867+P18507+P47869+P47870); type: protein-complex assay
Histamine H2 receptor = Histamine H2 receptor (Homo sapiens, UniProt P25021)
[5] = target: 5-hydroxytryptamine receptor 2B (Homo sapiens, UniProt P41595)
[6] = target: T4, Alpha-1A adrenergic receptor (Homo sapiens, UniProt P35348)
T4 sequence (P35348 whole entry): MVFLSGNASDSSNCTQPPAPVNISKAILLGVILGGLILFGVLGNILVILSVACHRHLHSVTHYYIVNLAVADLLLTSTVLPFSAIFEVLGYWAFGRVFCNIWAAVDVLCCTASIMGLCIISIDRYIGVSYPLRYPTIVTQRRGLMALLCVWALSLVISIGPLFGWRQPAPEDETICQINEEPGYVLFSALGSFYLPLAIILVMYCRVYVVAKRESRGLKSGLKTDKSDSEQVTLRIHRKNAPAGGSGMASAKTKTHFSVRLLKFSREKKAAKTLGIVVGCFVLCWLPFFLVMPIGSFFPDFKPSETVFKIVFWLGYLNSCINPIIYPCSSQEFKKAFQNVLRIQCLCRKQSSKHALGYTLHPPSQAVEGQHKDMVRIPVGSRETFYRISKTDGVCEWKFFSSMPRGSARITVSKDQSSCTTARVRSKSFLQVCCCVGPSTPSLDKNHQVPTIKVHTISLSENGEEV

Mu-type opioid receptor = Mu-type opioid receptor (Homo sapiens, UniProt P35372); assay: biochemical; type: functional
Also: assay procedure not described here.

Beta-3 adrenergic receptor, sequence (P13945 whole entry): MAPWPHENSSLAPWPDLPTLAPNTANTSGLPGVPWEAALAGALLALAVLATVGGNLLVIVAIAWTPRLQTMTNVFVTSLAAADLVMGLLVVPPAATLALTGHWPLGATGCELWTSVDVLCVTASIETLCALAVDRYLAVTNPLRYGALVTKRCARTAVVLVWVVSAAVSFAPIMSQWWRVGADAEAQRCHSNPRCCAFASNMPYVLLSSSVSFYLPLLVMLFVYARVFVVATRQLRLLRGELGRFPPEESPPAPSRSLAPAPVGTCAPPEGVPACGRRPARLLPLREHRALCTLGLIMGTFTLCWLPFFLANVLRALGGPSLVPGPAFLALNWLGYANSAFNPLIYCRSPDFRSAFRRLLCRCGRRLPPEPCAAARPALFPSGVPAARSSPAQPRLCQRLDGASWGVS
Histamine H2 receptor, sequence (P25021 whole entry): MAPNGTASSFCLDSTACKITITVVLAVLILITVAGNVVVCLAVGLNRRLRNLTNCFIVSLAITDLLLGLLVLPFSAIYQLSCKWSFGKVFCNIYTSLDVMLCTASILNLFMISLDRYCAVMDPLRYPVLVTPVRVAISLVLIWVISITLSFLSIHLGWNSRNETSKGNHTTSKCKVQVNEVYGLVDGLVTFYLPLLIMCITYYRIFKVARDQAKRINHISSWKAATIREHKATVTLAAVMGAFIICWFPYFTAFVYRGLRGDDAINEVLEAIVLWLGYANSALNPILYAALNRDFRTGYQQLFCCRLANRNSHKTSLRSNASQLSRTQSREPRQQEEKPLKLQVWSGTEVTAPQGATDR
5-hydroxytryptamine receptor 2B, sequence (P41595 whole entry): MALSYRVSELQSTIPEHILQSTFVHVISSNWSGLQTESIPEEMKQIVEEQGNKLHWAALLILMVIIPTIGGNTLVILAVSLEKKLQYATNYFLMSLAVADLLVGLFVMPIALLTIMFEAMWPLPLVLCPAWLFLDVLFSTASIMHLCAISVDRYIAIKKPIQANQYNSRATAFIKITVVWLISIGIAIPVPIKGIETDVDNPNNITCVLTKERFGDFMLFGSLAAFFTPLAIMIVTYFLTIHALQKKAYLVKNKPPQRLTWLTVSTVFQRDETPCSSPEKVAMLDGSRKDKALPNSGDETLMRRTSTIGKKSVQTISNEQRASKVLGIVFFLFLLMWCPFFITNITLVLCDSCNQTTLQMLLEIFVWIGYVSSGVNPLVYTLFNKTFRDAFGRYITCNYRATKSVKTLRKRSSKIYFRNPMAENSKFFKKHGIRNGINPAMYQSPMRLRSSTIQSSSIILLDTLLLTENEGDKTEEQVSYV
Receptor tyrosine-protein kinase erbB-2, sequence (P04626 whole entry): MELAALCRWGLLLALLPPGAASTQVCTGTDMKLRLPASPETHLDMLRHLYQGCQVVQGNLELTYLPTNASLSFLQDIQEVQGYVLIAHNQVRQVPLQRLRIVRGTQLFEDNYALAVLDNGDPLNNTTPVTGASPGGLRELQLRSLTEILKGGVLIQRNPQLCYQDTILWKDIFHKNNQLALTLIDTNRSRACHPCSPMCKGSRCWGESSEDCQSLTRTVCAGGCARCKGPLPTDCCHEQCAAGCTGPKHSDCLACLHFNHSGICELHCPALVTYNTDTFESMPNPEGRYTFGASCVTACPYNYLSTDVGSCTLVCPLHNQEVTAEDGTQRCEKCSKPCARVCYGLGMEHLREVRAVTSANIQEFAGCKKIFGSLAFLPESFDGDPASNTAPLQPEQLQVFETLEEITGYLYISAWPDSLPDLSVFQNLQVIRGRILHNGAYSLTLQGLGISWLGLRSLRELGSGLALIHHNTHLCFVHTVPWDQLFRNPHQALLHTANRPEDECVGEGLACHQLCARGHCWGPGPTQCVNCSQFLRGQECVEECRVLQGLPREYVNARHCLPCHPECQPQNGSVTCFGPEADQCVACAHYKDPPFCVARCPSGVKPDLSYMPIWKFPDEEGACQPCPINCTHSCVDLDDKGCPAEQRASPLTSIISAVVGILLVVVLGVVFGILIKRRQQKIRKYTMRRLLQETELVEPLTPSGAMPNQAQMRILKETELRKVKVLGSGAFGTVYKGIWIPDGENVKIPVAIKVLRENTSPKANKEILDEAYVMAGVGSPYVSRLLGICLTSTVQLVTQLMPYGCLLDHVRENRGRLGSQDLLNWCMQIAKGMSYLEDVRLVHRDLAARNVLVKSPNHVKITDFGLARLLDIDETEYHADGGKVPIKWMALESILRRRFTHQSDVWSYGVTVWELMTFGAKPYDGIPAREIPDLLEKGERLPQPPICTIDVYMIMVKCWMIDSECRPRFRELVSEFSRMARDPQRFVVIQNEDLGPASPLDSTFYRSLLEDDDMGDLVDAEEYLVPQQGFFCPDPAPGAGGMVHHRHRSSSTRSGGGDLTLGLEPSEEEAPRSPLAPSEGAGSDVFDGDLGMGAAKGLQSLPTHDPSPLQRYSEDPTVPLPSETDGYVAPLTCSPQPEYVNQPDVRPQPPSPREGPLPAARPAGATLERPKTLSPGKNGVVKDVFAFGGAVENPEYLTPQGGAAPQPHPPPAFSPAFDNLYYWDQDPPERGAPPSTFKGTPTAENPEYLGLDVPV
Gamma-aminobutyric acid receptor subunit alpha-1/alpha-2/beta-2/gamma-2, sequence (P14867 whole entry): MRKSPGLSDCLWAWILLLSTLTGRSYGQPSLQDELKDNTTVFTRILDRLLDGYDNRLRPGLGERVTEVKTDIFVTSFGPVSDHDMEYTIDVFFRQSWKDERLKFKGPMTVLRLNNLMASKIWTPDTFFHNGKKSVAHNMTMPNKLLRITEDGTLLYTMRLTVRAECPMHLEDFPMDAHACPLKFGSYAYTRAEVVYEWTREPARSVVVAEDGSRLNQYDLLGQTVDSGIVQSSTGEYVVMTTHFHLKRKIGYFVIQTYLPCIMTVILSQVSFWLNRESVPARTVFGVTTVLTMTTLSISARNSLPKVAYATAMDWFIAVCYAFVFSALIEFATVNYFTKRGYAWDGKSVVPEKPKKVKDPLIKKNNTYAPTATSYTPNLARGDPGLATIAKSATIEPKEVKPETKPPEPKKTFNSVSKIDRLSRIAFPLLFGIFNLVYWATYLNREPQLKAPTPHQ
Gamma-aminobutyric acid receptor subunit alpha-1/alpha-2/beta-2/gamma-2, sequence (P47870 whole entry): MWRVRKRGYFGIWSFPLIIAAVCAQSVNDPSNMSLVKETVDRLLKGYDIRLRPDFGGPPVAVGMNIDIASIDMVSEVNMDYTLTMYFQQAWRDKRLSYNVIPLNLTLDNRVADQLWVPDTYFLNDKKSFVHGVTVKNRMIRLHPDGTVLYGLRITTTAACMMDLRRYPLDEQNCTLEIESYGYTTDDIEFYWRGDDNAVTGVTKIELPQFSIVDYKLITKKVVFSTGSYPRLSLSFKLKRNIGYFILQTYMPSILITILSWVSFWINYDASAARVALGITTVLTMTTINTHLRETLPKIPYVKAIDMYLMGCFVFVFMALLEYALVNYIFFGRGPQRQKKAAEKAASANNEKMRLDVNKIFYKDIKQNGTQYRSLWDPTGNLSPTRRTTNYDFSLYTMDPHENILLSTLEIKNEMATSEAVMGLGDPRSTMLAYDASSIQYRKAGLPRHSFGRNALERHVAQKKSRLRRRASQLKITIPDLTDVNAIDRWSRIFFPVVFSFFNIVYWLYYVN
Gamma-aminobutyric acid receptor subunit alpha-1/alpha-2/beta-2/gamma-2, sequence (P18507 whole entry): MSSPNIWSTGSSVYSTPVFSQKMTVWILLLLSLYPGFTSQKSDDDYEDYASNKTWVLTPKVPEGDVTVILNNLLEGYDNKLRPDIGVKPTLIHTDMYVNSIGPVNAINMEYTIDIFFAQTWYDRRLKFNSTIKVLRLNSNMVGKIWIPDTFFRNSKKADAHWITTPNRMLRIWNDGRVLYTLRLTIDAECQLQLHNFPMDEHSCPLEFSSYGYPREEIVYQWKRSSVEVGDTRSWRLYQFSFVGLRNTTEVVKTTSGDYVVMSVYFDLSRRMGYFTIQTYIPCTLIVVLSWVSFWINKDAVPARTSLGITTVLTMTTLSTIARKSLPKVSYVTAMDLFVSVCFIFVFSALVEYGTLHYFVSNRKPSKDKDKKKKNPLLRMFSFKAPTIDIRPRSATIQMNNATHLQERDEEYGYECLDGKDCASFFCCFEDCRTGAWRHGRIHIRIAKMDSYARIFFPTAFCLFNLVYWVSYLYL
Gamma-aminobutyric acid receptor subunit alpha-1/alpha-2/beta-2/gamma-2, sequence (P47869 whole entry): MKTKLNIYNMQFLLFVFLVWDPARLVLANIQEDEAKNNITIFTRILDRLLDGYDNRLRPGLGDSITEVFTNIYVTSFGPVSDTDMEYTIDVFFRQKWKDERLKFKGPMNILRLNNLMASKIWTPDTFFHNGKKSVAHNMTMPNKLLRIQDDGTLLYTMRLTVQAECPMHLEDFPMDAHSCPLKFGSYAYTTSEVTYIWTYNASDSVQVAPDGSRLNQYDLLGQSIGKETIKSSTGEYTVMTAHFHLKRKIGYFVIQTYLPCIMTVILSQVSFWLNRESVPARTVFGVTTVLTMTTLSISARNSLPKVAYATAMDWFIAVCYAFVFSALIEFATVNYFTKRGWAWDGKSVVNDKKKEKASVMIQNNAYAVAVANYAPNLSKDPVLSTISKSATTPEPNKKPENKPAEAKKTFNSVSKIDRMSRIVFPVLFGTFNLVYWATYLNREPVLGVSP
Mu-type opioid receptor, sequence (P35372 whole entry): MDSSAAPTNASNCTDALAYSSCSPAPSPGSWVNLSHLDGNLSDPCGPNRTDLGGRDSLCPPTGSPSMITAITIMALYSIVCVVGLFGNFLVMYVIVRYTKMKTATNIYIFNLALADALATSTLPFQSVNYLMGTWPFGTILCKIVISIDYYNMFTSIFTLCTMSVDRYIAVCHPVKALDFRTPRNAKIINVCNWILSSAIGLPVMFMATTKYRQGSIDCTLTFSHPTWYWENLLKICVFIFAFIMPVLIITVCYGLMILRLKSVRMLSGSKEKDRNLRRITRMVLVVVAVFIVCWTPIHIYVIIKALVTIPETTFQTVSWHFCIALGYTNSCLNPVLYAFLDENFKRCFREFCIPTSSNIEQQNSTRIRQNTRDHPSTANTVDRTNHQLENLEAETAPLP

Row | SMILES | AC50 [1] | AC50 (Estrogen receptor) | AC50 (Glucocorticoid receptor) | AC50 [2] | AC50 [3] | AC50 [4] | AC50 (Histamine H2 receptor) | AC50 [5] | AC50 [6] | AC50 (Mu-type opioid receptor)
1 | CN(C)CCC=C1c2ccccc2C(C)(C)c2ccccc21 | > 30 µM | > 30 µM | > 30 µM | > 30 µM | – | – | – | – | – | –
2 | NCC(CC(=O)O)c1ccc(Cl)cc1 (stereo not drawn) [BACLOFEN] | > 30 µM | – | > 30 µM | > 30 µM | > 30 µM | > 30 µM | > 10 µM | > 10 µM | > 10 µM | –
3 | CC(C)C[C@H]1C(=O)N2CCC[C@H]2[C@]2(O)O[C@](NC(=O)[C@@H]3C=C4c5cccc6[nH]c(Br)c(c56)C[C@H]4N(C)C3)(C(C)C)C(=O)N12 [BROMOCRIPTINE] | > 30 µM | – | > 30 µM | > 30 µM | 18.9 µM | – | 1.69 µM | 0.412 µM | – | –
4 | O=C1Nc2ccc(Cl)cc2[C@@](C#CC2CC2)(C(F)(F)F)O1 [EFAVIRENZ] | – | > 30 µM | > 30 µM | 18 µM | – | – | – | – | – | –
5 | O=C(OCC(O)CO)c1ccccc1Nc1ccnc2cc(Cl)ccc12 (stereo not drawn) [GLAFENINE] | > 30 µM | > 30 µM | – | > 30 µM | – | > 30 µM | – | – | – | –
6 | c1ccc([C@H]2CN3CCSC3=N2)cc1 [LEVAMISOLE] | > 30 µM | > 30 µM | > 30 µM | > 30 µM | – | – | – | – | – | > 30 µM
7 | C[C@H]1CNCCc2ccc(Cl)cc21 [LORCASERIN] | > 30 µM | > 30 µM | > 30 µM | > 30 µM | – | – | – | – | – | –
8 | C[C@@H](O)[C@H]1C(=O)N2C(C(=O)O)=C(S[C@@H]3CN[C@H](C(=O)N(C)C)C3)[C@H](C)[C@H]12 [MEROPENEM] | > 300 µM | – | > 300 µM | > 300 µM | – | – | – | – | – | –
9 | CNC1Cc2ccccc2N(C)c2ccccc21 (stereo not drawn) [METAPRAMINE] | > 30 µM | > 30 µM | > 30 µM | > 30 µM | – | – | – | – | – | –
10 | COc1ccc(CC(C)(C)NC[C@H](O)c2cc(O)cc3c2OCC(=O)N3)cc1 [OLODATEROL] | > 30 µM | > 30 µM | > 30 µM | > 30 µM | – | – | – | – | – | –
11 | CCCN1C[C@H](CSC)C[C@@H]2c3cccc4[nH]cc(c34)C[C@H]21 [PERGOLIDE] | – | > 30 µM | > 30 µM | > 30 µM | 20.8 µM | – | 3.77 µM | 0.0205 µM | – | –
12 | C1CCC(C(CC2CCCCN2)C2CCCCC2)CC1 (stereo not drawn) [PERHEXILINE] | > 30 µM | > 30 µM | > 30 µM | > 30 µM | – | – | – | – | – | –
13 | c1cnc(N2CCN(Cc3ccc4c(c3)OCO4)CC2)nc1 [PIRIBEDIL] | > 30 µM | > 30 µM | > 30 µM | > 30 µM | – | – | – | – | – | –
14 | Cc1c(C(=O)NN2CCCCC2)nn(-c2ccc(Cl)cc2Cl)c1-c1ccc(Cl)cc1 [RIMONABANT] | > 30 µM | > 10 µM | > 30 µM | 17 µM | > 30 µM | – | 10.9 µM | > 10 µM | 13.7 µM | –
15 | Cn1nnc2c(C(N)=O)ncn2c1=O [TEMOZOLOMIDE] | > 30 µM | > 30 µM | – | > 30 µM | > 30 µM | – | > 10 µM | > 10 µM | > 10 µM | –
16 | N[C@@H]1[C@H]2CN(c3nc4c(cc3F)c(=O)c(C(=O)O)cn4-c3ccc(F)cc3F)C[C@@H]12 [TROVAFLOXACIN] | > 30 µM | > 30 µM | > 30 µM | > 30 µM | – | – | – | – | – | –
